In patent publication US20080114055A1, “Thioxanthone Compounds to Reverse Weight Loss” (ZOLTAN LABORATORIES LLC, priority 2006, published 2008):

Columns and labels:
T47D human breast tumor = experiment: T47D human estrogen receptor positive breast cancer model: body, total and tumor weight; assay type: in vivo, mice; conditions: for Body weight: total minus tumor weight
From the text: Tumors were developed in a homozygous line of C.B.-171 cr scid/scid adult female mice kept at specified pathogen free (SPF) hygienic levels. Suspensions of HL-60 human leukemia cells (about 1,500,000 cells), or approximately 0.1 cm^3 volume of tumor tissue derived from HT-168 human melanoma, PC-3 human prostate adenocarcinoma, or T47D human breast carcinoma were implanted subcutaneously to develop the tumors. After 12-18 days when the tumor-bearing mice were first treated, the size of the tumors was in the 0.2-0.4 cm^3 range. CCcompound1 was dissolved in physiological (0.9%) saline (NaCl) and applied subcutaneously in 50 μl volume. Tumor volume was determined by calipers in three dimensions; this technique is well known to one having ordinary skill in the art. Tumor volume was calculated according to the generally accepted formula: V=a^2×b×π/6, where “a” and “b” mean the shortest and longest diameter, respectively, of the measured tumor. Tumor weight was calculated from tumor volume using a 0.7 (tumor weight) : 1 (tumor volume) ratio. Total weight and tumor volume/weight was measured regularly (at least every second day). In all tumor experiments, each treatment group consisted of five animals. Accordingly, all data are the average of five independent determinations (one determination for each animal). T47D human tumors were developed in mice as described above. Treatments with CCcompound1 were started on day 17 after tumor implantation and conducted for five days and then followed by an additional five days with 2 treatment-free days inserted between the 2 series of treatments. The results, shown in TABLE 5, indicate that between day 17 and 28 after tumor implantation, this breast tumor caused about a 2.5-g loss in body weight. […] Thus, in this human breast tumor model, CCcompound1 is a potent anti-cachectic agent and its effects on body weight are accompanied by significant anti-tumor effects.

[1] = tested on: HL60 human leukemia tumor; experiment: HL60 human leukemia tumor model: body, total and tumor weight; assay type: in vivo, mice; conditions: for Body weight: total minus tumor weight
From the text: Tumors were developed in a homozygous line of C.B.-171 cr scid/scid adult female mice kept at specified pathogen free (SPF) hygienic levels. Suspensions of HL-60 human leukemia cells (about 1,500,000 cells), or approximately 0.1 cm^3 volume of tumor tissue derived from HT-168 human melanoma, PC-3 human prostate adenocarcinoma, or T47D human breast carcinoma were implanted subcutaneously to develop the tumors. After 12-18 days when the tumor-bearing mice were first treated, the size of the tumors was in the 0.2-0.4 cm^3 range. CCcompound1 was dissolved in physiological (0.9%) saline (NaCl) and applied subcutaneously in 50 μl volume. Tumor volume was determined by calipers in three dimensions; this technique is well known to one having ordinary skill in the art. Tumor volume was calculated according to the generally accepted formula: V=a^2×b×π/6, where “a” and “b” mean the shortest and longest diameter, respectively, of the measured tumor. Tumor weight was calculated from tumor volume using a 0.7 (tumor weight) : 1 (tumor volume) ratio. Total weight and tumor volume/weight was measured regularly (at least every second day). In all tumor experiments, each treatment group consisted of five animals. Accordingly, all data are the average of five independent determinations (one determination for each animal). HL60 human tumors were developed in mice as described above. Treatments with CCcompound1 were started on day 18 after tumor implantation and conducted for the first five days and then for three days with two treatment-free days inserted between the two series of treatments. The results, shown in TABLE 2, indicate that between day 18 and 27 after tumor implantation, the leukemia tumor caused about 4-g loss in body weight.

[2] = 1.0 mg/kg s.c., day 17 (treatment start)
[3] = 2.0 mg/kg s.c., day 17 (treatment start)
[4] = 4.0 mg/kg s.c., day 17 (treatment start)
[5] = 0.5 mg/kg s.c., day 18 (treatment start)
[6] = 1.0 mg/kg s.c., day 18 (treatment start)
[7] = 2.0 mg/kg s.c., day 18 (treatment start)

SMILES: Cc1c(OCC(O)C[N+](C)(C)C)cc2c(=O)c3ccccc3sc2c1C.[Cl-] (stereo not shown) [CCcompound1, [3-(3,4-Dimethyl-9-oxo-9H-thioxanthen-2-yloxy)-2-hydroxypropyl]trimethyl-ammonium chloride]
- Tumor weight (T47D human breast tumor; [2]): 0.2 g
- Body weight (T47D human breast tumor; [2]): 26.3 g
- Total weight (T47D human breast tumor; 1.0 mg/kg s.c., day 17 after tumor transplantation (treatment start)): 26.5 g
- Tumor weight (T47D human breast tumor; 1.0 mg/kg s.c., day 28): 1.6 g
- Body weight (T47D human breast tumor; 1.0 mg/kg s.c., day 28): 27.7 g
- Total weight (T47D human breast tumor; 1.0 mg/kg s.c., day 28 after tumor transplantation): 29.3 g
- Total weight (T47D human breast tumor; [3]): 26.9 g
- Tumor weight (T47D human breast tumor; [3]): 0.2 g
- Body weight (T47D human breast tumor; [3]): 26.7 g
- Total weight (T47D human breast tumor; 2.0 mg/kg s.c., day 28): 28.7 g
- Tumor weight (T47D human breast tumor; 2.0 mg/kg s.c., day 28): 1.5 g
- Body weight (T47D human breast tumor; 2.0 mg/kg s.c., day 28): 27.2 g
- Total weight (T47D human breast tumor; [4]): 27.0 g
- Tumor weight (T47D human breast tumor; [4]): 0.2 g
- Body weight (T47D human breast tumor; [4]): 26.8 g
- Total weight (T47D human breast tumor; 4.0 mg/kg s.c., day 28): 30.9 g
- Tumor weight (T47D human breast tumor; 4.0 mg/kg s.c., day 28): 1.2 g
- Body weight (T47D human breast tumor; 4.0 mg/kg s.c., day 28): 29.7 g
- Effect on body weight loss (T47D human breast tumor; 1-mg/kg, between day 17 and 28): fully reversed body weight loss
- Body weight gain (T47D human breast tumor; 4-mg/kg, between day 17 and 28): 3.1 g
- Reduction of tumor weight (T47D human breast tumor; 4-mg/kg, day 28): about 40%
- Tumor weight [1, 5]: 0.7 g
- Body weight [1, 5]: 25.5 g
- Total weight ([1]; 0.5 mg/kg s.c., day 18 after tumor transplantation (treatment start)): 26.2 g
- Tumor weight ([1]; 0.5 mg/kg s.c., day 27): 2.8 g
- Body weight ([1]; 0.5 mg/kg s.c., day 27): 24.0 g
- Total weight ([1]; 0.5 mg/kg s.c., day 27 after tumor transplantation): 26.8 g
- Total weight [1, 6]: 26.2 g
- Tumor weight [1, 6]: 0.4 g
- Body weight [1, 6]: 25.8 g
- Total weight ([1]; 1.0 mg/kg s.c., day 27): 30.3 g
- Tumor weight ([1]; 1.0 mg/kg s.c., day 27): 1.9 g
- Body weight ([1]; 1.0 mg/kg s.c., day 27): 28.4 g
- Total weight [1, 7]: 27.0 g
- Tumor weight [1, 7]: 0.5 g
- Body weight [1, 7]: 26.5 g
- Total weight ([1]; 2.0 mg/kg s.c., day 27): 30.6 g
- Tumor weight ([1]; 2.0 mg/kg s.c., day 27): 1.9 g
- Body weight ([1]; 2.0 mg/kg s.c., day 27): 28.7 g
- Effect on body weight loss ([1]; 0.5-mg/kg, between day 18 and 27): reduced body weight loss
- Effect on body weight ([1]; 1-mg/kg, between day 18 and 27): gained weight
- Effect on body weight ([1]; 2-mg/kg, between day 18 and 27): gained weight
- Reduction of tumor weight ([1]; higher amounts of CCcompound1, day 27): about 45%
